One experiment has as its target T1, Mer (Homo sapiens, UniProt Q12866).
T1 construct: host or cells: 293A cells (Thermo Fisher #R70507)
T1 sequence (Q12866 21-999): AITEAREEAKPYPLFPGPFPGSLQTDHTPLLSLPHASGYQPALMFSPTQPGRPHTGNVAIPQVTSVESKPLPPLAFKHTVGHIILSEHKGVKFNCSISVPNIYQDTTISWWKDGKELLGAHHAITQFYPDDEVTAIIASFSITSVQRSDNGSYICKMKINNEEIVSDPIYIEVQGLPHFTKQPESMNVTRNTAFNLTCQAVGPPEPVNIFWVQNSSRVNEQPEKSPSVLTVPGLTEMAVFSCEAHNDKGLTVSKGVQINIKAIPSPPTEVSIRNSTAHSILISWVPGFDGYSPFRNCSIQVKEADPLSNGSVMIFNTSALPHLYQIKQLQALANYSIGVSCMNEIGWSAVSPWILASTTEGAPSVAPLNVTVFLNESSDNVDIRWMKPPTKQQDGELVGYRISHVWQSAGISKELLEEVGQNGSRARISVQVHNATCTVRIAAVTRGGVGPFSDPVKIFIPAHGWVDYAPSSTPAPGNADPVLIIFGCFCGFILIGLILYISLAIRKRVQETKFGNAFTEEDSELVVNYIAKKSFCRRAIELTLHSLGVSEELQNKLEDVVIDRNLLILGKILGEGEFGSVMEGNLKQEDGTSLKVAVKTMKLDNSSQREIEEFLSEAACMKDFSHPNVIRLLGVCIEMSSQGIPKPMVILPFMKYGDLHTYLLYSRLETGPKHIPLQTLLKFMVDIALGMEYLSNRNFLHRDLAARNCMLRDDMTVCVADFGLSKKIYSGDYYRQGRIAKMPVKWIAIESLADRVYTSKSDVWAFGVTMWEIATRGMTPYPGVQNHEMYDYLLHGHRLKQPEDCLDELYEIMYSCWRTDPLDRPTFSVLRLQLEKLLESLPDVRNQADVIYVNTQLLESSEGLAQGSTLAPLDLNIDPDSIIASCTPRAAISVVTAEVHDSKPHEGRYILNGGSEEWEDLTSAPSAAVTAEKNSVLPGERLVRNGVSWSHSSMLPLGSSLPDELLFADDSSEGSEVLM
Put plainly: Mer autophosphorylation ELISA in transient transfected 293A cells. The note with it: Table 3 Cellular Activities; MERTK-transfected 293A cells, phospho-Mer ELISA. In kind it is cell-based. The procedure, abridged: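 Phospho-Mer quantified by ELISA in lysates of transiently MERTK-transfected 293A cells after 1 h exposure to an 8-point compound series, serum-free, 0.3% DMSO. Activity normalized between DMSO-treated (100%) and reference inhibitor-treated (0%) lysates; IC50 via 4-parameter nonlinear regression.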

The next experiment deals with KDR (Homo sapiens, UniProt P35968). As to the kind of experiment: KDR autophosphorylation ELISA in HUVEC cells. In kind it is cell-based. On the set-up: endogenous in cells; host or cells: HUVEC (Lonza #C2519A). To be noted: Table 3 Cellular Activities, VEGF165-stimulated, phospho-KDR ELISA. The gist of the method:
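HUVEC, 24 h serum-free starvation; cpd 8-pt dilution, 0.3% DMSO final, 1 h; VEGF165 100 ng/mL, 5 min; cold lysis; phospho-KDR ELISA; IC50, 4PL.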

Molecules are shown by their SMILES. Bounds are passed on as bounds.

The IC50 is the concentration that gives 50% inhibition.

KDR, sequence (P35968 20-1356): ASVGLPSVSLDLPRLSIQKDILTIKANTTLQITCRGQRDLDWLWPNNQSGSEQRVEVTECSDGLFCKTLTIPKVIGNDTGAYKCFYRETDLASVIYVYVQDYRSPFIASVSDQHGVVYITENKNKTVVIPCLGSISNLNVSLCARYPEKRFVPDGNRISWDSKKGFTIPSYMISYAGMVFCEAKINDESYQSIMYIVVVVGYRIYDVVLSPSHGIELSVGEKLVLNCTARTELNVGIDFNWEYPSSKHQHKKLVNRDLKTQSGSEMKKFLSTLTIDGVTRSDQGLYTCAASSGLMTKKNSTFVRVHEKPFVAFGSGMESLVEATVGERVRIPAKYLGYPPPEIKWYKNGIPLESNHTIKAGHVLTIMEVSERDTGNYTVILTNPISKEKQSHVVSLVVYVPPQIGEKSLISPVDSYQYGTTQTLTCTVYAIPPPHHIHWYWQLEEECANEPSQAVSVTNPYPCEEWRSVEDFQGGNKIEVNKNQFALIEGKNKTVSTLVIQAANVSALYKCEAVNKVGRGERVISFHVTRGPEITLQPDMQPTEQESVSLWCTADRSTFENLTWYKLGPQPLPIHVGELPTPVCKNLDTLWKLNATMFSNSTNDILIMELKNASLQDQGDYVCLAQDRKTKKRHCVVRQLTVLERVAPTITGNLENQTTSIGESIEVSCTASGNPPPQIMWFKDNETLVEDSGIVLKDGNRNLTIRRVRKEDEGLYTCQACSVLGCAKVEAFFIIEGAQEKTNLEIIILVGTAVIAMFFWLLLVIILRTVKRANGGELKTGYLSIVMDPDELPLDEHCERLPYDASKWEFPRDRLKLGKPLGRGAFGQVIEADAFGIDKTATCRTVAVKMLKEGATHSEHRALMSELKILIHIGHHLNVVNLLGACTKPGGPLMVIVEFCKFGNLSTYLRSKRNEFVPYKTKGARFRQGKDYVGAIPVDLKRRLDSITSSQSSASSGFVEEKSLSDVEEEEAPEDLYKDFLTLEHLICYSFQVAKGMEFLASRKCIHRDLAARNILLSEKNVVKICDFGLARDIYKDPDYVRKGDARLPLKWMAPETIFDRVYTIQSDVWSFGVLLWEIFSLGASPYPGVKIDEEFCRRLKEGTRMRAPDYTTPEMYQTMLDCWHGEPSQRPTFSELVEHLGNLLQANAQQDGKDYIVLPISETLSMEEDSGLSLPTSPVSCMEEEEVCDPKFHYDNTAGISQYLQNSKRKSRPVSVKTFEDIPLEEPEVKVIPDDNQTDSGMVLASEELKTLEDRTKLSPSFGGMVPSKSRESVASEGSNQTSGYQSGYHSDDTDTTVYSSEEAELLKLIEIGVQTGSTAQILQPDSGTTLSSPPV

For `COc1cc2nccc(Oc3ccc(NC(=O)c4c5n(cc(-c6cc(C)cs6)c4=O)CCOC5)cc3F)c2nc1OC` [Compound 302, N-[4-[(6,7-Dimethoxy-1,5-naphthyridin-4-yl)oxy]-3-fluorophenyl]-7-(4-methylthiophen-2-yl)-8-oxo-3,4-dihydro-1H-pyrido[2,1-c][1,4]oxazine-9-carboxamide], the IC50 on Mer and on KDR was no more than 0.1 µM each time.
On to `COc1cc2nccc(Oc3ccc(NC(=O)c4c5n(cc(-c6cc(C)cs6)c4=O)CCOC5)cc3)c2nc1OC` [Compound 303, N-[4-[(6,7-Dimethoxy-1,5-naphthyridin-4-yl)oxy]phenyl]-7-(4-methylthiophen-2-yl)-8-oxo-3,4-dihydro-1H-pyrido[2,1-c][1,4]oxazine-9-carboxamide], for which the IC50 is no more than 0.1 µM against Mer and 0.3 to 1 µM on KDR.
In the case of `COc1cc2nccc(Oc3ccc(NC(=O)c4c5n(cc(-c6ccc(C)s6)c4=O)CCOC5)cc3F)c2nc1OC` [Compound 304, N-[4-[(6,7-Dimethoxy-1,5-naphthyridin-4-yl)oxy]-3-fluorophenyl]-7-(5-methylthiophen-2-yl)-8-oxo-3,4-dihydro-1H-pyrido[2,1-c][1,4]oxazine-9-carboxamide], the IC50 against Mer was no more than 0.1 µM; on KDR, 0.3 to 1 µM.
For the compound `COc1cc2nccc(Oc3ccc(NC(=O)c4c5n(cc(-c6ccc(C)s6)c4=O)CCOC5)cc3)c2nc1OC` [Compound 305, N-[4-[(6,7-Dimethoxy-1,5-naphthyridin-4-yl)oxy]phenyl]-7-(5-methylthiophen-2-yl)-8-oxo-3,4-dihydro-1H-pyrido[2,1-c][1,4]oxazine-9-carboxamide], the figures for the IC50 against Mer and at KDR were no more than 0.1 µM and 0.3 to 1 µM, respectively.
Take `COc1cc2nccc(Oc3ccc(NC(=O)c4c5n(cc(-c6ccoc6)c4=O)CCOC5)cc3F)c2nc1OC` [Compound 306, N-[4-[(6,7-Dimethoxy-1,5-naphthyridin-4-yl)oxy]-3-fluorophenyl]-7-(furan-3-yl)-8-oxo-3,4-dihydro-1H-pyrido[2,1-c][1,4]oxazine-9-carboxamide]: the IC50 at Mer was no more than 0.1 µM; on KDR, 0.3 to 1 µM.
The like results for `COc1cc2nccc(Oc3ccc(NC(=O)c4c5n(c(C)c(-c6ccsc6)c4=O)CCOC5)cc3F)c2nc1OC` [Compound 307, N-[4-[(6,7-Dimethoxy-1,5-naphthyridin-4-yl)oxy]-3-fluorophenyl]-6-methyl-8-oxo-7-thiophen-3-yl-3,4-dihydro-1H-pyrido[2,1-c][1,4]oxazine-9-carboxamide] were, in that order, no more than 0.1 µM and 0.1 to 0.3 µM.
The matching figures for `COc1cc2nccc(Oc3ccc(NC(=O)c4c5n(cc(-c6cccs6)c4=O)CCOC5)cc3F)c2nc1OC` [Compound 309, N-[4-[(6,7-Dimethoxy-1,5-naphthyridin-4-yl)oxy]-3-fluorophenyl]-8-oxo-7-thiophen-2-yl-3,4-dihydro-1H-pyrido[2,1-c][1,4]oxazine-9-carboxamide]: no more than 0.1 µM and 0.3 to 1 µM.
The matching figures for `COc1cc2nccc(Oc3ccc(NC(=O)c4c5n(cc(-c6ccoc6)c4=O)CCOC5)cc3)c2nc1OC` [Compound 310, N-[4-[(6,7-Dimethoxy-1,5-naphthyridin-4-yl)oxy]phenyl]-7-(furan-3-yl)-8-oxo-3,4-dihydro-1H-pyrido[2,1-c][1,4]oxazine-9-carboxamide]: no more than 0.1 µM and 0.3 to 1 µM.
As to `CCc1c(C(=O)Nc2ccc(Oc3ccnc4cc(OC)c(OC)nc34)c(F)c2)c(=O)c(-c2ccco2)c(C)n1C` [Compound 324, N-[4-[(6,7-Dimethoxy-1,5-naphthyridin-4-yl)oxy]-3-fluorophenyl]-2-ethyl-5-(furan-2-yl)-1,6-dimethyl-4-oxopyridine-3-carboxamide], the half-maximal inhibitory concentration (IC50) against Mer and against KDR was no more than 0.1 µM in each case.
As for `COc1cc2nccc(Oc3ccc(NC(=O)c4cn(CCF)c(C)c(-c5cccs5)c4=O)cc3F)c2nc1OC` [Compound 327, N-[4-[(6,7-Dimethoxy-1,5-naphthyridin-4-yl)oxy]-3-fluorophenyl]-1-(2-fluoroethyl)-6-methyl-4-oxo-5-thiophen-2-ylpyridine-3-carboxamide], the IC50 at Mer was no more than 0.1 µM; against KDR it was 0.1 to 0.3 µM.
The matching figures for `COc1cnc2c(Oc3ccc(NC(=O)c4cn(CCF)c(C)c(-c5cc(C)cs5)c4=O)cc3F)ccnc2c1` [Compound 328, 1-(2-Fluoroethyl)-N-[3-fluoro-4-[(7-methoxy-1,5-naphthyridin-4-yl)oxy]phenyl]-6-methyl-5-(4-methylthiophen-2-yl)-4-oxopyridine-3-carboxamide]: no more than 0.1 µM and 0.3 to 1 µM.

Values taken from US20230151003A1, “COMPOUNDS AND METHODS OF USE” (Exelixis, Inc., priority 2020, published 2023).
